According to patent US10214583B2, “Sodium pump antibody agonists and methods of treating heart disease using the same” (priority 2011, dated 2019):
Entries after “also recorded” stand apart in the source; their conditions may differ.

What was measured:
[1] = tested on: Spontaneously Hypertensive Heart Failure (SHHF) rats; assay: Immunization of late-stage SHHF rats, heart function by echo; type: in vivo; settings: 14 months old SHHF rats, control rat died
Protocol: Studies were also conducted on the ability of NKA alpha subunit peptides to induce a therapeutic immune response in late-stage Spontaneously Hypertensive Heart Failure (SHHF) rats. The SHHF rats used for this study were 14 months old with late-stage heart failure. The heart function was measured by echo and expressed as percent of fractional shortening (FS %). The initial heart functions were 26.0% and 28.0% for control SHHF rat and the one with immunization, respectively. […] The peptide with which the rats were immunized has the following amino acid sequence […] (SEQ ID NO:7), as disclosed in U.S. Pat. No. 7,754,210.

isolated rat myocytes = assay: Nifedipine and KB-R7943 sensitive 45Ca influx; type: cell-based
Protocol: The reaction was stopped by adding 5 mM EGTA on ice and cells were washed and spun at 4000 rpm for 2 min (×3) to remove extracellular ^45Ca. Net intracellular counts per minute (cpm) of ^45Ca for each sample was determined by using a β-scintillation counter and the concentration of ^45Ca was calculated as described previously (20).

[2] = tested on: isolated rat cardiac myocytes; assay: Sodium Green fluorescence (intracellular Na+); type: cell-based
Protocol: The final concentration of Sodium Green in each sample tube was 10 μM during the incubation. The myocytes were then transferred to 96-well plates (Nunc) and the measurement of Sodium Green fluorescence was carried out by excitation at 485 nm and quantifying emission at 535 nm using a VICTOR-II multilabel counter (PerkinElmer Life Sciences).

[3] = tested on: isolated rat cardiac myocytes; assay: Rat myocyte contractility (cell shortening); type: cell-based; settings: 0.1 mM PB2948 + 0.5 μM JY2948
From the text: Rat ventricular myocytes were isolated as described (18). The contraction amplitude was indexed by the percentage shortening of cell length (19).

NKA β1 subunit = assay: Specificity analysis by Western blotting; type: binding, pig, dog, rat; settings: PB2948
Protocol: Samples of purified rat and dog NKA, along with SDS-stripped pig α1 and β1 subunits (30 μg each) were mixed with electrophoresis sample buffer separately, boiled for 5 min, and loaded on freshly made 7.5% SDS-PAGE gel. Following electrophoresis, the samples were transferred from the SDS gel to a nitrocellulose membrane (0.45 μm). […] The membranes were then washed and incubated with secondary antibody (1:7500) for 1 hour. The color was then developed for visual analysis.

DVEDSYGQQWTYEQR (chemically-synthesized antigen) [SEQ ID NO:7, NKA alpha subunit peptide used to immunize SHHF rats, disclosed in U.S. Pat. No. 7,754,210]
late-stage SHHF rat cardiac function (fractional shortening, FS %) [1]: significantly improved

C[C@@H]1O[C@@H](O[C@H]2C[C@@H](O)[C@]3(CO)[C@H]4[C@H](O)C[C@]5(C)[C@@H](C6=CC(=O)OC6)CC[C@]5(O)[C@@H]4CC[C@]3(O)C2)[C@H](O)[C@H](O)[C@H]1O [ouabain]
ouabain-induced 45Ca influx relative to JY2948/β1 subunit-induced influx (isolated rat myocytes): 4.4 fold
share of ouabain-induced 45Ca influx through LTCC (isolated rat myocytes): approximately 40%
share of ouabain-induced 45Ca influx through NCX (isolated rat myocytes): ~60%
45Ca influx (isolated rat myocytes; ouabain 2.5 mM alone): 330±6.4 pCi
nifedipine-resistant 45Ca influx (isolated rat myocytes; ouabain + 10 μM nifedipine): 188±78 pCi
ouabain-induced 45Ca influx (isolated rat myocytes; ouabain + both nifedipine and KB-R7943): completely impeded; also recorded: completely abolished
Sodium Green fluorescence intensity ([2]; ouabain (2.5 mM)): 136±13%
Sodium Green fluorescence intensity ([2]; ouabain + 5 μM KB-R7943): 153±19%
Sodium Green fluorescence intensity ([2]; ouabain + 30 μM KB-R7943): 151±23%

KERGEFNHERGER (listed as Rattus norvegicus) [PB2948]
JY2948-induced positive inotropic effect in the presence of peptide blocker [3]: completely eliminated
interaction between JY2948 and native β1 subunit in presence of peptide blocker (NKA β1 subunit): completely abolished

N=C(N)SCCc1ccc(OCc2ccc([N+](=O)[O-])cc2)cc1 [KB-R7943]
effect on JY2948-induced 45Ca influx (isolated rat myocytes; KB-R7943 (5 μM)): failed to inhibit
changes of 45Ca concentration compared with control cell background (isolated rat myocytes; KB-R7943 alone (504 [sic])): No significant changes
Sodium Green fluorescence intensity ([2]; 5 μM KB-R7943 alone, control 100): 99±10%
Sodium Green fluorescence intensity ([2]; 30 μM KB-R7943 alone, control 100): 102±7.0%
